Assay results from paper PMC8870237, “Improved Multimodal Tumor Necrosis Imaging with IRDye800CW-DOTA Conjugated to an Albumin-Binding Domain” (Cancers, 2022).

Experiments:
[1] = In vivo stability (radio-HPLC of urine 1 h after injection); set-up: species or system mouse; conditions: mice, i.v., 1 h p.i.
Source text: After an hour, the mice were sacrificed by cervical dislocation and blood and urine were collected, which were frozen in liquid nitrogen directly after extraction. […] The supernatant was collected and analyzed by radio-HPLC (Method-D).

[2] = system: 4T1-Luc2 tumors; assay: SPECT/CT tumor necrosis imaging, quantified tumor uptake; type: in vivo, mouse; conditions: 4T1-Luc2 tumor-bearing mice, 24 h p.i.
Description: The 4T1-Luc2 cells (1.0 × 10^5) suspended in 15 µL PBS were inoculated bilaterally in 16 mice in four groups of four animals each. Nine days later, the tumor-bearing mice were injected with [^111In]3 (20 MBq, 2 nmol, in 200 µL PBS) into the tail vein, after which imaging was performed at timepoints 6, 24, 48, and 72 h post-injection (p.i.) under isoflurane anesthesia (4% induction, 1.5 to 2% maintenance in 100% O2), whilst maintaining the body temperature constant. First, FLI imaging was performed with a 730 nm excitation and 760 nm emission filter for 400 ms with 4 × 4 binning. Then, the mice received an intraperitoneal injection of D-luciferin (150 mg/kg) maintaining the position of the mice in the bed unaltered, and BLI imaging was performed with an open filter for 400 ms with 4 × 4 binning. Full body (head to tail base) SPECT images of the 5 cm axial field of view were obtained over a total scan time of 30 min, followed by a 2 min full-body CT. After imaging, the mice were euthanized for ex vivo analysis.
Acquired SPECT and PET images were reconstructed using SR-OSEM with 9 iterations and 128 subsets on a 36 × 36 × 35 mm matrix with 0.80 mm isotropic voxels. For the PET images, a decay correction of 109.7 min was applied. The PET and SPECT images were superposed with CT. The images were further analyzed in Pi-Mod. […]

[3] = system: EMT6-Luc2 tumors; assay: Tumor uptake in EMT6-Luc2 tumor-bearing mice; type: in vivo, mouse; conditions: untreated, 24 h p.i., ±SEM
Description: The quadruple modality imaging procedure is illustrated in Figure S21. The tumor-bearing mice were injected with [^111In]3 (20 MBq, 2 nmol) in 200 µL PBS into the tail vein. The following day, the mice fasted for four hours before they were injected with [^18F]FDG (10 MBq, 200 µL) in PBS. At 24 h p.i. of [^111In]3 and 1 h p.i. of [^18F]FDG, FLI imaging was performed with a 730 nm excitation and 760 nm emission filter for 400 ms with 4 × 4 binning. Then, the mice received an intraperitoneal injection of D-luciferin (150 mg/kg) maintaining the position of the mice in the bed unaltered. During the onset of the bioluminescence signal, PET/SPECT imaging was performed of the tumors with a 2 cm axial field of view over a total scan time of 30 min, followed by a 2 min full-body CT. Finally, BLI imaging was performed with an open filter for 400 ms with 4 × 4 binning. Imaging was performed under isoflurane anesthesia whilst maintaining the body temperature constant. […]
After the final imaging experiments, the mice were sacrificed by cervical dislocation, tumors and organs were collected, weighted, and activity was accurately quantified by γ-counting to determine radioactivity uptake in the percentage of injected dose per gram (%ID/g). […] The sections were stored at −20 °C for the radioactivity to decay, before 800 nm fluorescence imaging and histochemical dead cell staining.

CC1(C)C(=CC=C2CCCC(C=CC3=[N+](CCCCCC(=O)NCCCC[C@H](NC(=O)CCCc4ccc(I)cc4)C(=O)NCc4ccc(CNC(=O)CN5CCN(CC(=O)[O-])CCN(CC(=O)[O-])CCN(CC(=O)[O-])CC5)cc4)c4ccc(S(=O)(=O)O)cc4C3(C)C)=C2Oc2ccc(S(=O)(=O)O)cc2)N(CCCCS(=O)(=O)O)c2ccc(S(=O)(=O)O)cc21.[111In+3] [[^111In]3]
in vivo stability, remained stable [1]: > 95%
radioactive tumor uptake in the SPECT images [2]: 3.83 ± 0.19 %ID/mL
tumor uptake of [111In]3 [3]: 2.81 ± 0.21 %ID/g
